test system: immunoglobulin light chain protein WIL-FL T46L; assay: Differential scanning fluorimetry (thermal shift) assay; format: binding; conditions: Table A; temperature shift [Tm]compound-[Tm]vehicle; recombinant WIL-FL T46L

Compound | DSF
Cc1cc(N2CC[C@](C)(c3ccccc3)C2)cn2nc(C(=O)N3CCC4(CC3)COCC4N3CC4C(C3)C4C(=O)O)nc12 (stereo partly shown) [Compound 353] | ***** (>2.5° C.=*****)
Cc1cc(OC[C@H](C)c2ccccc2)cn2nc(C(=O)N3CCC4(CCN(c5cccc(C(=O)O)n5)C4)C3)nc12 (stereo partly shown) [Compound 311] | ***** (>2.5° C.=*****)
COC(=O)CC1C2CN(C3CC4(CC(NC(=O)c5nc6c(C)cc(N7CC[C@](C)(c8ccccc8)C7)cn6n5)C4)C3)CC12 (stereo partly shown) [Compound 357] | ***** (>2.5° C.=*****)
Cc1cc(N2CC[C@](C)(c3ccccc3)C2)cn2nc(C(=O)NC3CC4(C3)CC(N3CC5C(C3)C5C(=O)O)C4)nc12 (stereo partly shown) [Compound 364] | ***** (>2.5° C.=*****)
Cc1cc(N2CC[C@](C)(c3ccccc3)C2)cn2nc(C34CC(CO3)C4C(C)(C)O)nc12 (stereo partly shown) [Compound 73] | ***** (>2.5° C.=*****)
COC(=O)C1CCN(C2COC23CC(NC(=O)c2nc4c(C)cc(N5CC[C@](C)(c6ccccc6)C5)cn4n2)C3)CC1 (stereo partly shown) [Compound 360] | ***** (>2.5° C.=*****)
Cc1cc(OC[C@H](C)c2ccccc2)cn2nc(C(=O)NC3CC4(C3)CC(N3CC5C(C3)C5C(=O)O)C4)nc12 (stereo partly shown) [Compound 314] | ***** (>2.5° C.=*****)
Cc1cc(OCC2(c3ccccc3)CC2)cn2nc(C34CC(N)(CO3)C4)nc12 [Compound 57] | ***** (>2.5° C.=*****)
Cc1cc(N2CC[C@](C)(c3ccccc3)C2)cn2nc(C(=O)NC3CN(c4cccc(C(=O)O)n4)CCC3(C)O)nc12 (stereo partly shown) [Compound 230] | ***** (>2.5° C.=*****)
CNC(=O)C1C2COC1(c1nc3c(C)cc(N4CC[C@](C)(c5ccccc5)C4)cn3n1)C2 (stereo partly shown) [Example 72] | ***** (>2.5° C.=*****)
Cc1cc(N2CC[C@](C)(c3ccccc3)C2)cn2nc(C(=O)N3CCC4(CCN(c5nc(C(=O)O)cs5)C4)C3)nc12 (stereo partly shown) [Compound 218] | ***** (>2.5° C.=*****)
Cc1cc(N2CC[C@](C)(c3ccccc3)C2)cn2nc(C(=O)N3CC4CC3CO4)nc12 (stereo partly shown) [Compound 124] | ***** (>2.5° C.=*****)
Cc1cc(N2CC[C@](C)(c3ccccc3)C2)cn2nc(C(=O)NC34COC(C(C)(C)O)(C3)C4)nc12 [Compound 123] | ***** (>2.5° C.=*****)
Cc1cc(N2CC[C@@](c3ccccc3)(C(F)F)C2)cn2nc(C(=O)NCC(C)(C)O)nc12 [Compound 327] | ***** (>2.5° C.=*****)
Cc1cc(N2CC[C@](C)(c3ccccc3)C2)cn2nc(C(=O)N3CCC4(COC4)C3)nc12 [Compound 113] | ***** (>2.5° C.=*****)
Cc1cc(N2CC[C@](C)(c3ccccc3)C2)cn2nc(C(=O)NC3CN(c4cccc(C(=O)O)n4)CCC3(C)C)nc12 (stereo partly shown) [Compound 274] | ***** (>2.5° C.=*****)
Cc1cc(N2CC[C@](C)(c3ccccc3)C2)cn2nc(C(=O)NC34CC(O)(C3)C4)nc12 [Compound 132] | ***** (>2.5° C.=*****)
Cc1cc(N2CC[C@](C)(c3ccccc3)C2)cn2nc(C(=O)NC3CCN(c4nccc(C(=O)O)n4)CC3)nc12 [Compound 238] | ***** (>2.5° C.=*****)
Cc1cc(N2CC[C@](C)(c3ccccc3)C2)cn2nc(C(=O)N3C[C@@H]4CN(c5cccc(C(=O)O)n5)C[C@@H]4C3)nc12 [Compound 194] | ***** (>2.5° C.=*****)
Cc1ncn(CC2C3COC2(c2nc4c(C)cc(N5CC[C@](C)(c6ccccc6)C5)cn4n2)C3)n1 (stereo partly shown) [Compound 83] | **** (>1.5-2.5° C.=****)
Cc1cc(N2CC[C@](C)(c3ccccc3)C2)cn2nc(C(=O)NC3CC(N4CC5C(C4)C5C(=O)O)C3)nc12 (stereo partly shown) [Compound 354] | ***** (>2.5° C.=*****)
Cc1cc(N2CC[C@](C)(c3ccccc3)C2)cn2nc(C34CC(CO3)C4c3nn[nH]n3)nc12 (stereo partly shown) [Compound 76] | ***** (>2.5° C.=*****)
Cc1cc(N2CC[C@](C)(c3ccccc3)C2)cn2nc(C(=O)NCC34COC(C(=O)O)(C3)C4)nc12 [Compound 209] | ***** (>2.5° C.=*****)
Cc1cc(N2CC[C@](C)(c3ccccc3)C2)cn2nc(C(=O)NC3CCC(c4cccc(C(=O)O)n4)CC3)nc12 (stereo partly shown) [Compound 229] | ***** (>2.5° C.=*****)
CC(O)c1cc(N2CC[C@](C)(c3ccccc3)C2)cn2nc(C(=O)NC3CCN(c4cccc(C(=O)O)n4)CC3)nc12 (stereo partly shown) [Compound 342] | ***** (>2.5° C.=*****)

same assay, conditions: Table B; temperature shift [Tm]compound-[Tm]vehicle; recombinant WIL-FL T46L

Compound | DSF
Cc1cc(N2CC[C@](C)(c3ccccc3)C2)cn2nc(C34CC(CNc5cccc(C(=O)O)n5)(CO3)C4)nc12 [Compound 461] | ***** (>2.5° C.=*****)
Cc1cc(N2CC[C@](C)(c3ccccc3)C2)cn2nc(C3OC4(C)CC3(C(=O)O)C4)nc12 (stereo partly drawn) [Compound 474, 1-methyl-3-[8-methyl-6-[(3R)-3-methyl-3-phenyl-pyrrolidin-1-yl]-[1,2,4]triazolo[1,5-a]pyridin-2-yl]-2-oxabicyclo[2.1.1]hexane-4-carboxylic acid] | **** (>1.5-2.5° C.=****)
Cc1cc(N2CC[C@](C)(c3ccccc3)C2)cn2nc(C(=O)NC3CN(c4cccc(C(=O)O)n4)CC34COC4)nc12 (stereo partly shown) [Compound 646] | ***** (>2.5° C.=*****)
COC(C)(CC(=O)N1CC2(C1)CN(C1C3COC1(c1nc4c(C)cc(N5CC[C@](C)(c6ccccc6)C5)cn4n1)C3)C(=O)N2)C(=O)O (stereo partly shown) [Compound 518] | ***** (>2.5° C.=*****)
Cc1cc(N2CC[C@](C)(c3ccccc3)C2)cn2nc(C34CC(CO3)C4N3CC(C)(C)OC3=O)nc12 (stereo partly drawn) [Compound 529, 5,5-dimethyl-3-[1-[8-methyl-6-[(3R)-3-methyl-3-phenyl-pyrrolidin-1-yl]-[1,2,4]triazolo[1,5-a]pyridin-2-yl]-2-oxabicyclo[2.1.1]hexan-5-yl]oxazolidin-2-one] | ***** (>2.5° C.=*****)
Cc1cc(N2CC[C@](C)(c3ccccc3)C2)cn2nc(C(=O)NC3CC4(CCN4c4cccc(C(=O)O)n4)C3)nc12 (stereo partly shown) [Compound 667] | ***** (>2.5° C.=*****)
Cc1cc(N2CC[C@](C)(c3ccccc3)C2)cn2nc(C(=O)N3CC4C(C3)C4Nc3cccc(C(=O)O)n3)nc12 (stereo partly shown) [Compound 622] | ***** (>2.5° C.=*****)
Cc1cc(N2CC[C@](C)(c3ccccc3)C2)cn2nc(C(=O)NC3CC4(C3)CN(C(=O)C3CCC(C(=O)O)O3)C4)nc12 (stereo partly drawn) [Compound 596, 5-[6-[[8-methyl-6-[(3R)-3-methyl-3-phenyl-pyrrolidin-1-yl]-[1,2,4]triazolo[1,5-a]pyridine-2-carbonyl]amino]-2-azaspiro[3.3]heptane-2-carbonyl]tetrahydrofuran-2-carboxylic acid] | ***** (>2.5° C.=*****)
Cc1cc(N2CC[C@](C)(c3ccccc3)C2)cn2nc(C34CC(CNC(=O)CC(C)(C)O)(CO3)C4)nc12 [Compound 457, (R)-3-hydroxy-3-methyl-N-((1-(8-methyl-6-(3-methyl-3-phenylpyrrolidin-1-yl)-[1,2,4]triazolo[1,5-a]pyridin-2-yl)-2-oxabicyclo[2.1.1]hexan-4-yl)methyl)butanamide] | ***** (>2.5° C.=*****)
Cc1cc(N2CC[C@](C)(c3ccccc3)C2)cn2nc(C(=O)N3CCC4(CCN(c5nc(C(=O)O)ccc5C#N)C4)C3)nc12 (stereo partly shown) [Compound 724] | ***** (>2.5° C.=*****)
Cc1cc(N2CC[C@](C)(c3ccccc3)C2)cn2nc(C34CC(CO3)C4N3CC4(CCOCC4)NC3=O)nc12 (stereo partly shown) [Compound 522] | ***** (>2.5° C.=*****)
Cc1cc(N2CC[C@](C)(c3ccccc3)C2)cn2nc(C34CC(CO3)C4COC3CCN(c4cccc(C(=O)O)n4)CC3)nc12 (stereo partly shown) [Compound 503] | ***** (>2.5° C.=*****)
Cc1cc(N2CC[C@](C)(c3ccccc3)C2)cn2nc(C(=O)NC3COCC4(C3)CN(c3cccc(C(=O)O)n3)C4)nc12 (stereo partly drawn) [Compound 669, 6-(8-(8-methyl-6-((R)-3-methyl-3-phenylpyrrolidin-1-yl)-[1,2,4]triazolo[1,5-a]pyridine-2-carboxamido)-6-oxa-2-azaspiro[3.5]nonan-2-yl)picolinic acid] | ***** (>2.5° C.=*****)
CCC(=O)Nc1n[nH]c(C2C3(CO)COC2(c2nc4c(C)cc(N5CC[C@](C)(c6ccccc6)C5)cn4n2)C3)n1 (stereo partly drawn) [Compound 572, N-[5-[4-(hydroxymethyl)-1-[8-methyl-6-[(3R)-3-methyl-3-phenyl-pyrrolidin-1-yl]-[1,2,4]triazolo[1,5-a]pyridin-2-yl]-2-oxabicyclo[2.1.1]hexan-5-yl]-1H-1,2,4-triazol-3-yl]propanamide] | ***** (>2.5° C.=*****)
Cc1cc(N2CC[C@](C)(c3ccccc3)C2)cn2nc(C34CC(CO3)C4Cc3nnn[nH]3)nc12 (stereo partly shown) [Compound 504] | ***** (>2.5° C.=*****)
CCS(=O)(=O)Nc1n[nH]c(C2C3(CNC(=O)CC(C)(C)C(=O)O)COC2(c2nc4c(C)cc(N5CC[C@](C)(c6ccccc6)C5)cn4n2)C3)n1 (stereo partly drawn) [Compound 547, 4-[[5-[3-(ethylsulfonylamino)-1H-1,2,4-triazol-5-yl]-1-[8-methyl-6-[(3R)-3-methyl-3-phenyl-pyrrolidin-1-yl]-[1,2,4]triazolo[1,5-a]pyridin-2-yl]-2-oxabicyclo[2.1.1]hexan-4-yl]methylamino]-2,2-dimethyl-4-oxo-butanoic acid] | ***** (>2.5° C.=*****)
Cc1cc(N2CC[C@](C)(c3ccccc3)C2)cn2nc(C(=O)N3CC4(C3)CN(c3cccc(C(=O)O)n3)CCO4)nc12 [Compound 665] | ***** (>2.5° C.=*****)
Cc1cc(N2CC[C@](C)(c3ccccc3)C2)cn2nc(C34CC(CO3)C4Cn3cc(CO)nn3)nc12 (stereo partly shown) [Compound 481] | ***** (>2.5° C.=*****)
Cc1cc(N2CC[C@](C)(c3ccccc3)C2)cn2nc(C(=O)N3CC[C@@]4(CCN(C(=O)CC(C)(C)O)C4)C3)nc12 [Compound 721] | ***** (>2.5° C.=*****)
Cc1nc([C@H]2[C@@]3(CO)CO[C@]2(c2nc4c(C)cc(N5CC[C@](C)(c6ccccc6)C5)cn4n2)C3)n[nH]1 [Compound 580, ((1R,4S,5R)-5-(5-methyl-1H-1,2,4-triazol-3-yl)-1-(8-methyl-6-((R)-3-methyl-3-phenylpyrrolidin-1-yl)-[1,2,4]triazolo[1,5-a]pyridin-2-yl)-2-oxabicyclo[2.1.1]hexan-4-yl)methanol] | ***** (>2.5° C.=*****)
Cc1cc(N2CC[C@](C)(c3ccccc3)C2)cn2nc(C(=O)N3CCC(Nc4cccc(C(=O)O)n4)C4(COC4)C3)nc12 (stereo partly shown) [Compound 702] | ***** (>2.5° C.=*****)

— US20260285857A1, “BICYCLIC AND HETEROCYCLIC AMIDE COMPOUNDS” (priority 2024, published 2026)
